# Laboratory results taken from PMC11277991, “Tunicamycins from Marine-Derived Streptomyces bacillaris Inhibit MurNAc-Pentapeptide Translocase in Staphylococcus aureus” (Marine Drugs, 2024).
# Biological target: T1, MurNAc-pentapeptide translocase (MraY) (Staphylococcus aureus, UniProt Q2FZ93)
# T1 construct: recombinant His6-tagged MraY from S. aureus ATCC6538p (ca. 36 kDa), expressed in E. coli BL21(DE3)
# Test: UMP-Glo luminescence glycosyltransferase assay with purified MraY
# Format: biochemical
# T1 sequence (Q2FZ93 whole entry): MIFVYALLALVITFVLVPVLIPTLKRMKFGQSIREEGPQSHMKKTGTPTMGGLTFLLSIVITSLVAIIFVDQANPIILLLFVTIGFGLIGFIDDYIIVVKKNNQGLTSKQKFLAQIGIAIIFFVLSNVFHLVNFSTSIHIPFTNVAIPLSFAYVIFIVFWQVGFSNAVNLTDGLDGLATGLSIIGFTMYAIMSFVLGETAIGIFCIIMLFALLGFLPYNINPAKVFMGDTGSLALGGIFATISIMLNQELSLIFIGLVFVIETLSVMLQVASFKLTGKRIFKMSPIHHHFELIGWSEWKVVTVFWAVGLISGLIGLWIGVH
row,SMILES,IC50
1,"CC(=O)N[C@H]1[C@@H](O[C@@H]2O[C@H](C[C@@H](O)[C@H]3O[C@@H](n4ccc(=O)[nH]c4=O)[C@H](O)[C@@H]3O)[C@H](O)[C@H](O)[C@H]2NC(=O)/C=C/CCCCCCCCCCC(C)C)O[C@H](CO)[C@@H](O)[C@@H]1O [compound 1, tunicamycin VII]",142 nM
2,"CCCCCCCCCCCCC/C=C/C(=O)N[C@H]1[C@H](O[C@H]2O[C@H](CO)[C@@H](O)[C@H](O)[C@H]2NC(C)=O)O[C@H](C[C@@H](O)[C@H]2O[C@@H](n3ccc(=O)[nH]c3=O)[C@H](O)[C@@H]2O)[C@H](O)[C@@H]1O [compound 2, tunicamycin VIII]",154 nM
3,"CCC(C)CCCCCCCCCC/C=C/C(=O)N[C@H]1[C@H](O[C@H]2O[C@H](CO)[C@@H](O)[C@H](O)[C@H]2NC(C)=O)O[C@H](C[C@@H](O)[C@H]2O[C@@H](n3ccc(=O)[nH]c3=O)[C@H](O)[C@@H]2O)[C@H](O)[C@@H]1O (stereo partly shown) [compound 3, corynetoxin U17a]",93.1 nM
4,"CCCCCCCCCCCCCC/C=C/C(=O)N[C@H]1[C@H](O[C@H]2O[C@H](CO)[C@@H](O)[C@H](O)[C@H]2NC(C)=O)O[C@H](C[C@@H](O)[C@H]2O[C@@H](n3ccc(=O)[nH]c3=O)[C@H](O)[C@@H]2O)[C@H](O)[C@@H]1O [compound 4, tunicamycin IX]",244 nM
